The values below come from ChEMBL document CHEMBL5465560, “Selectivity Literature for EUbOPEN Chemogenomic Library” (2024).

As usually defined, the IC50 is the concentration that inhibits the measured activity by half.

Experiment [1] addresses Casein kinase I isoform gamma-1 (Homo sapiens) (UniProt Q9HCP0). Nature of the experiment: Selectivity interaction (Kinase panel (Z-LYTE Assay)) EUB0001632a CSNK1G1. The note with it: at 10 µM.
The target of experiment [2] is Mitogen-activated protein kinase 7 (Homo sapiens) (UniProt Q13164). Nature of the experiment: Selectivity interaction (Kinase panel (Z-LYTE Assay)) EUB0001632a MAPK7. Conditions: at 10 µM.
Sequence of Mitogen-activated protein kinase 7 (Homo sapiens) (Q13164 2-816 limits assumed): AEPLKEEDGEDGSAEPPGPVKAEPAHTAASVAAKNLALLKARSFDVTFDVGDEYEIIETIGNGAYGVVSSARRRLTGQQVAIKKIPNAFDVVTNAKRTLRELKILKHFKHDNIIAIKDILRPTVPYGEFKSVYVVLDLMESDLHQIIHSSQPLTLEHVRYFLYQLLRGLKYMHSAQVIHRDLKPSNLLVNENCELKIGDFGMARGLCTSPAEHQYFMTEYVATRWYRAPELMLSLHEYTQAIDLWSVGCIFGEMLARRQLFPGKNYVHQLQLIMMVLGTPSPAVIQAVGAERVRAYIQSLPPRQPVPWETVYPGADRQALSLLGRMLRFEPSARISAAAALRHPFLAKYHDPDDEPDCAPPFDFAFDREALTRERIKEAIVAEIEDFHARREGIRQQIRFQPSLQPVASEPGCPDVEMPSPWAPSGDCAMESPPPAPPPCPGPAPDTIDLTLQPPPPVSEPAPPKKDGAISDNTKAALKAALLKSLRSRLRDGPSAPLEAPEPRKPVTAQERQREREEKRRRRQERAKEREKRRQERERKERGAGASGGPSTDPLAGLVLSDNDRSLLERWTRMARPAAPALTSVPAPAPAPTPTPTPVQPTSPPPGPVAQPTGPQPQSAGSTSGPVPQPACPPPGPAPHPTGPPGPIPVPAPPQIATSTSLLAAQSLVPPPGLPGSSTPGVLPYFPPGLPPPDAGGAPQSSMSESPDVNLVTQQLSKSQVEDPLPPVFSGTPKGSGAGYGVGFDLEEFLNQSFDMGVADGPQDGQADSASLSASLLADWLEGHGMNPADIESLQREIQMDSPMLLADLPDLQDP
Experiment [3] addresses MAP kinase-activated protein kinase 2 (Homo sapiens, UniProt P49137). Nature of the experiment: Selectivity interaction (Kinase panel (Z-LYTE Assay)) EUB0001632a MAPKAPK2. Conditions: at 10 µM.
Experiment [4] has as its target Non-receptor tyrosine-protein kinase TYK2 (Homo sapiens, UniProt P29597). Kind of experiment: Selectivity interaction (Kinase panel (Carna Biosciences)) EUB0001542aTs TYK2. The note with it: at 1 µM.
The test system of experiment [5] is Epidermal growth factor receptor (Homo sapiens), P00533 [UNDEFINED MUTATION]. Kind of experiment: Selectivity interaction (KinomeScan (DiscoverX)) EUB0000666a EGFR. The note with it: at 10 µM.
Sequence of Epidermal growth factor receptor (Homo sapiens), P00533 [UNDEFINED MUTATION] (P00533 whole entry, looked up, change not shown): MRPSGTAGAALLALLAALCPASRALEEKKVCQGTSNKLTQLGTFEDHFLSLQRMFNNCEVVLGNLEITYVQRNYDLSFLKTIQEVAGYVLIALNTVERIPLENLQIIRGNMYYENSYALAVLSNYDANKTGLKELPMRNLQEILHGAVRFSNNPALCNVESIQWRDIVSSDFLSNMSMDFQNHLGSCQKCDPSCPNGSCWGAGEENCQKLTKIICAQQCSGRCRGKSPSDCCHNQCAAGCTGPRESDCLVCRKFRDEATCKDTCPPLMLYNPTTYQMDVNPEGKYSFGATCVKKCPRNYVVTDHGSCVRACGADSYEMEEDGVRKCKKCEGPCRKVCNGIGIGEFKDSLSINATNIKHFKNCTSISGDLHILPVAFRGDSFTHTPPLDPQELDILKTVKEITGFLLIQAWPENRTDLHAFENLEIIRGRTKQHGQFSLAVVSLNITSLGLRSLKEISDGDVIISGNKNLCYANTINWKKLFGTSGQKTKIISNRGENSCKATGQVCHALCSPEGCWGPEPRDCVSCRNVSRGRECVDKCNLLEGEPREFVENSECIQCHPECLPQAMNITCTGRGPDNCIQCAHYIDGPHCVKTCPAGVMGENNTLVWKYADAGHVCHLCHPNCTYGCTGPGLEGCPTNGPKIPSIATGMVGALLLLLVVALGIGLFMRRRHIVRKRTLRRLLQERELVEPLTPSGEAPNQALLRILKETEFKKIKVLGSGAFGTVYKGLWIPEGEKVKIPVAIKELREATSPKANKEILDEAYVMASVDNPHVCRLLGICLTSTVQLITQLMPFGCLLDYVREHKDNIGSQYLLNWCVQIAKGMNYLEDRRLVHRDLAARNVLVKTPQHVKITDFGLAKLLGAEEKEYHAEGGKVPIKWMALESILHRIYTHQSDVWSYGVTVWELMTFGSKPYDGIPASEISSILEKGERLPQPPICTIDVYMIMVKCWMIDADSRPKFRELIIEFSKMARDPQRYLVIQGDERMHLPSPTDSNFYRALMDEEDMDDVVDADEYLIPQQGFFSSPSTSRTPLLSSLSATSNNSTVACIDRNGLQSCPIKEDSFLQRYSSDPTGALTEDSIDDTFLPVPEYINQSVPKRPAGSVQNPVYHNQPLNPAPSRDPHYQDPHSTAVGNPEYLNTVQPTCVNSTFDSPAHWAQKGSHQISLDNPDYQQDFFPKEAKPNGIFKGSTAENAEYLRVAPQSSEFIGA
Experiment [6] has as its target T1, MAP/microtubule affinity-regulating kinase 4 (Homo sapiens) (UniProt Q96L34).
T1 sequence (whole entry): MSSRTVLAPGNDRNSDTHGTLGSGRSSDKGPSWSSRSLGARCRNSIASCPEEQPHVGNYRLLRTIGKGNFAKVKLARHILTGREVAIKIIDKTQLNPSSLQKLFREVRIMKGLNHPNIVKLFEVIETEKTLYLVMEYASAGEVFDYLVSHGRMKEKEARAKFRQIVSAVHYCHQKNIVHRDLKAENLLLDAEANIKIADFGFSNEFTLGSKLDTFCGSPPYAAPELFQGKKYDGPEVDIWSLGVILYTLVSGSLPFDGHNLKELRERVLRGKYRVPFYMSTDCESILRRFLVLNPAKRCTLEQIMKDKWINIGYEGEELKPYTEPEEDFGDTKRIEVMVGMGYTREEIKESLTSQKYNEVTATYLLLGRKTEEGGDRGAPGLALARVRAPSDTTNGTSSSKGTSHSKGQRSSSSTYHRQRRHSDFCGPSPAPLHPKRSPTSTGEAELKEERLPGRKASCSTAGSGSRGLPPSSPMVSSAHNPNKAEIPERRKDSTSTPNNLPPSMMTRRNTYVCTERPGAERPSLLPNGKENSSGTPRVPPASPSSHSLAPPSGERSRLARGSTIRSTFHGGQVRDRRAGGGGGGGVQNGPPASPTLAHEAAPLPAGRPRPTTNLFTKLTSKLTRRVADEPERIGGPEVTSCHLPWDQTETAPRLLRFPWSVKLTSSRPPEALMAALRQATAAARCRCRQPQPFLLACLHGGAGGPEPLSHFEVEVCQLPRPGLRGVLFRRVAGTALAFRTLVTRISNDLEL
Nature of the experiment: Selectivity interaction (KinomeScan (DiscoverX)) EUB0000229b MARK4. Conditions: at 10 µM.

Experiment [7] concerns the target Cyclin-dependent kinase-like 3 (Homo sapiens) (UniProt Q8IVW4). Nature of the experiment: Selectivity interaction (KinomeScan (DiscoverX)) EUB0000655a CDKL3. The note with it: at 10 µM.
The target of experiment [8] is T2, Serine/threonine-protein kinase Nek2 (Homo sapiens) (UniProt P51955).
T2 sequence (whole entry): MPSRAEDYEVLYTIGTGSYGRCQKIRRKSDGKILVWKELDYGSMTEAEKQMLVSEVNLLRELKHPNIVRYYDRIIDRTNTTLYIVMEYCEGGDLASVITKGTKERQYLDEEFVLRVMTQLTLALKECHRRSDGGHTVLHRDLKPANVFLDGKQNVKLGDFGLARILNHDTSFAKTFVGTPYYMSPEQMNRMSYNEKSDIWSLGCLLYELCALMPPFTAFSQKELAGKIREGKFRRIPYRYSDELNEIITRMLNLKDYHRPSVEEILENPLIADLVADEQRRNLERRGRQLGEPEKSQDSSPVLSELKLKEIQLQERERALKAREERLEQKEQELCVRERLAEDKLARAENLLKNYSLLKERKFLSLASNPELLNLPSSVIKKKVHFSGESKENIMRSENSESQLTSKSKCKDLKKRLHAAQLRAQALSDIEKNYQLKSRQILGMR
Nature of the experiment: Selectivity interaction (Kinase panel (literature)) EUB0001199aCl NEK2. Conditions: at 1 µM.

The target in experiment [9] is Delta-type opioid receptor (Homo sapiens, UniProt P41143). Nature of the experiment: Selectivity interaction (Opiate Delta receptor assay, human recombinant ) EUB0000877a OPRD1.
Sequence of Delta-type opioid receptor (P41143 whole entry): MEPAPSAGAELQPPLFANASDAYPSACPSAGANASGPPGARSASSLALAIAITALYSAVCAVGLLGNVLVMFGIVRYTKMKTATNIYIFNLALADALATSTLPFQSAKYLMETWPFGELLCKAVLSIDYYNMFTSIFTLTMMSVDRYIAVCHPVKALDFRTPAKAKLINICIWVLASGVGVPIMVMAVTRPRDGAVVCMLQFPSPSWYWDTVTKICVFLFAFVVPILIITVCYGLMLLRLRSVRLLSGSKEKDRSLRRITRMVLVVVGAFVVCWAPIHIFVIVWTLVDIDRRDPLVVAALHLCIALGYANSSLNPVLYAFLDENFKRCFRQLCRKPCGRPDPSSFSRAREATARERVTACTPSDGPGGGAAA
Experiment [10] concerns the target Tyrosine-protein kinase Lyn (Homo sapiens, UniProt P07948). Conditions: at 10 µM.
The target in experiment [11] is Vascular endothelial growth factor receptor 2 (Homo sapiens, UniProt P35968).
Experiment [12] has as its target T3, cGMP-dependent protein kinase 1 (Homo sapiens) (UniProt Q13976).
T3 sequence (whole entry): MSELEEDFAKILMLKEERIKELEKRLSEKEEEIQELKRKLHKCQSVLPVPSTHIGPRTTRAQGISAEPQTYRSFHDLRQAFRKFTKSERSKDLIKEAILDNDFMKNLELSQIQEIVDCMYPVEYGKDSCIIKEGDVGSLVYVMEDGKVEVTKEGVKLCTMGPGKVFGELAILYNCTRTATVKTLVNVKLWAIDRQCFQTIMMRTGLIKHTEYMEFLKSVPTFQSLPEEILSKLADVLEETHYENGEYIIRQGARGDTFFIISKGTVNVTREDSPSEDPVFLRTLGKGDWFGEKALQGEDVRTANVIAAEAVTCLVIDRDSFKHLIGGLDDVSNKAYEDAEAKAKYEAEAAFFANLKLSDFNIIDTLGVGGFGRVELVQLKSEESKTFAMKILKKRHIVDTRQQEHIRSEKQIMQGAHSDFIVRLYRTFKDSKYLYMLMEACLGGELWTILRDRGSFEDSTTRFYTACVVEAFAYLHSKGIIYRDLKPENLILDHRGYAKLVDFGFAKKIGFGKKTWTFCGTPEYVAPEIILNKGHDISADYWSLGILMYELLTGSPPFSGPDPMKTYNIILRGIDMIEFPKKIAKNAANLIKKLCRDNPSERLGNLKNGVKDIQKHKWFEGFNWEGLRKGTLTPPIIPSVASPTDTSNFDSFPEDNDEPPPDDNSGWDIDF
Nature of the experiment: Selectivity interaction (KinomeScan (DiscoverX)) EUB0001049a PRKG1. Conditions: at 1 µM.

In experiment [13] the target is Fibroblast growth factor receptor 3 (Homo sapiens, UniProt P22607). Nature of the experiment: Selectivity interaction (KinomeScan (DiscoverX)) EUB0000092b FGFR3. The note with it: at 10 µM.
Sequence of Fibroblast growth factor receptor 3 (P22607 23-806 limits assumed): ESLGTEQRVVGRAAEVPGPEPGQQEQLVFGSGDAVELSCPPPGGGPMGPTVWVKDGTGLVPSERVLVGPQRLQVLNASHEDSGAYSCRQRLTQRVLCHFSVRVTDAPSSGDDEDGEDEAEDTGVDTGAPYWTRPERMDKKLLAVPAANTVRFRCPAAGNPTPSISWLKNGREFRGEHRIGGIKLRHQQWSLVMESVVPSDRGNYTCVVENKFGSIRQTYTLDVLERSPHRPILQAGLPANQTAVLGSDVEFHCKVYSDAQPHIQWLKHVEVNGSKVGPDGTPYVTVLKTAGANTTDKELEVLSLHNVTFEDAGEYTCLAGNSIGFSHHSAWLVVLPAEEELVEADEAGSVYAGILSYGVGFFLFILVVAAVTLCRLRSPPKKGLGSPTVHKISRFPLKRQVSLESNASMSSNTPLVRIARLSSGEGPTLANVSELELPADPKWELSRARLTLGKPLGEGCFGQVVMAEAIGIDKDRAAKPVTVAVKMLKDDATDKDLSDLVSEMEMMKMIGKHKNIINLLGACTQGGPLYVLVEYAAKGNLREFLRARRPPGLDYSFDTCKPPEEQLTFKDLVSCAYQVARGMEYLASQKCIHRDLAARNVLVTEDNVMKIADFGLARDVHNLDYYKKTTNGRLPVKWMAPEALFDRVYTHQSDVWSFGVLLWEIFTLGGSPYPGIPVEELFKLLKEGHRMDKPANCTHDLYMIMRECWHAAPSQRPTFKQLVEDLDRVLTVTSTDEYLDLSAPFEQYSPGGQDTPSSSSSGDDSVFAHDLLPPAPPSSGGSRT
Experiment [14] deals with Vascular endothelial growth factor receptor 1 (Homo sapiens) (UniProt P17948). Kind of experiment: Selectivity interaction (Kinase panel (DSF assay)) EUB0001559a FLT1. In general terms: Differential scanning fluorimetry follows unfolding on heating by fluorescence.
The target in experiment [15] is Serine/threonine-protein kinase SBK1 (Homo sapiens) (UniProt Q52WX2). Nature of the experiment: Selectivity interaction (KinomeScan (DiscoverX)) EUB0000045b SBK1. The note with it: at 1 µM.
Sequence of Serine/threonine-protein kinase SBK1 (Homo sapiens) (Q52WX2 whole entry): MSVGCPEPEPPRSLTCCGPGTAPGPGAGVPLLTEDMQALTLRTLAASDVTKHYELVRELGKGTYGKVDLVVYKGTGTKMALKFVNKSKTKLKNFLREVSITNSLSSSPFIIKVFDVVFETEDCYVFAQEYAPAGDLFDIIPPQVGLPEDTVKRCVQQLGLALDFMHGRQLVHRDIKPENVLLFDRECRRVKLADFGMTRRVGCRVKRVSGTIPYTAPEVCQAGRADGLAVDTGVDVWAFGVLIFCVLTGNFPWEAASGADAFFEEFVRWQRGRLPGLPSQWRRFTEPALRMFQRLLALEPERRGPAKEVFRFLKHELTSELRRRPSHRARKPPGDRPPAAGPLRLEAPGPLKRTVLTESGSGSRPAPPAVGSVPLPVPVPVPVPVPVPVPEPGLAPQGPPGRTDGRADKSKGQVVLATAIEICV

Sequence of MAP kinase-activated protein kinase 2 (P49137 whole entry, looked up): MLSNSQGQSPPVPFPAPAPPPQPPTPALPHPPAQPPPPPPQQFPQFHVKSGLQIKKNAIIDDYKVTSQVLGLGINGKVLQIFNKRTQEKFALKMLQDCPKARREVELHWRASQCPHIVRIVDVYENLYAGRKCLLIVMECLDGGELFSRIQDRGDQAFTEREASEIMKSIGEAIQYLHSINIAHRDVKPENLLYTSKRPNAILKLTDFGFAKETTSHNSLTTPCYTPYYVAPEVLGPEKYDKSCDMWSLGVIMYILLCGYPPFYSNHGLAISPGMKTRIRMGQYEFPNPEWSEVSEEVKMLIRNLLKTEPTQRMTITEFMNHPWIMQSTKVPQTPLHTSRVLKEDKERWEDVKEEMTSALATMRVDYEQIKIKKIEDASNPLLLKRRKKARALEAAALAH
Sequence of Casein kinase I isoform gamma-1 (Homo sapiens) (Q9HCP0 whole entry, looked up, canonical isoform): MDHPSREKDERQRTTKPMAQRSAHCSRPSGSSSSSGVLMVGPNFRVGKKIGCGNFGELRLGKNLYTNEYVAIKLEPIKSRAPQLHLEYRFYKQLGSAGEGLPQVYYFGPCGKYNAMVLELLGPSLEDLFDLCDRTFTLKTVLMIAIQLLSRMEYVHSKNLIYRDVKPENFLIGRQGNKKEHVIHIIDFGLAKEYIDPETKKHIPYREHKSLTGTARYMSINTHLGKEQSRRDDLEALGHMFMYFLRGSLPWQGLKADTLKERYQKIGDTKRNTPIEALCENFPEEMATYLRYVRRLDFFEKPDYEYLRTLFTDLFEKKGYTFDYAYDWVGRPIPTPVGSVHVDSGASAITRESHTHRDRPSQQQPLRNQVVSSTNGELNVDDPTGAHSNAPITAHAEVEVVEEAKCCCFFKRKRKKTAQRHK
Sequence of Cyclin-dependent kinase-like 3 (Homo sapiens) (Q8IVW4 whole entry, looked up): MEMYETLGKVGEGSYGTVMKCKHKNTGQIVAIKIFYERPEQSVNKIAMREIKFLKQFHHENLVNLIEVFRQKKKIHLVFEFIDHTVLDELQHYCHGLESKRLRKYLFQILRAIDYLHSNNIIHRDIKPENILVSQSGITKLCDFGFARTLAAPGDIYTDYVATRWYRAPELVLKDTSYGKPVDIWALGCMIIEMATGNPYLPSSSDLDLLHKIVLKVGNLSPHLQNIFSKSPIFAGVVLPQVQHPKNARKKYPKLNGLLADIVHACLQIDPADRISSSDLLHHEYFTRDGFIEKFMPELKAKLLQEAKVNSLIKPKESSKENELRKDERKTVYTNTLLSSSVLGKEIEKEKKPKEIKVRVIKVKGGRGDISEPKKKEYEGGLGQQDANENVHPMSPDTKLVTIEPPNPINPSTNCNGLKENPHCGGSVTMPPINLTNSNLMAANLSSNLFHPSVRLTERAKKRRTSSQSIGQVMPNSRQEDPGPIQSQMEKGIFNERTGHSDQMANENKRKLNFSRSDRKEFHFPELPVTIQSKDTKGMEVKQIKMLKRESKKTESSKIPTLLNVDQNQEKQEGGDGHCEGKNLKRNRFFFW

With `Cn1cc(-n2cnc3c(NCc4nc5cc(Cl)c(Cl)cc5[nH]4)nc(N4CCOCC4)nc32)cn1`, the % of control is 12.7% in experiment [1], 2.02% in experiment [2] and -2.67% in experiment [3].

`Cn1cc(Nc2nccc(N3CC4CCC(C3)N4C(=O)[C@@H]3CC3(F)F)n2)cn1` registered a % of inhibition in experiment [4] of 98%.

On to `O=C(NOC[C@H](O)CO)c1ccc(F)c(F)c1Nc1ccc(I)cc1F`, for which the % of control in experiment [5] is 59%.

`COc1cc(N(C)c2ccnc3ccc(C(F)(F)F)cc23)cc(OC)c1OC` registered a % binding in experiment [6] of 87%.

As for `CN(C)CCOc1ccc(-c2nc(-c3ccncc3)c(-c3ccc4c(c3)CC/C4=N\O)[nH]2)cc1`, the % of control in experiment [7] turned out to be 100%.

For the compound `CN1Cc2nccc(-c3cn(C)nc3-c3ccc(F)cc3)c2C1=O`, the % of inhibition in [8] turned out to be 4%.

Consider `CCC(=O)N1CC[C@H](Nc2ncnc3c2CN(c2cnc(OC)c(C(F)(F)F)c2)CC3)C1` [LENIOLISIB], for which, in experiment [9], the IC50 was greater than 30 µM.

As for `CCN(CC)CCCCNc1ncc2cc(-c3cc(OC)cc(OC)c3)c(NC(=O)NC(C)(C)C)nc2n1`, the % of control in experiment [10] was 100%.

In the case of `CCc1cccc(CC)c1NC(=O)c1nn(C)c2c1CCc1cnc(Nc3ccc(C(=O)NC4CCN(C)CC4)cc3OC(F)(F)F)nc1-2`, the IC50 in experiment [11] is greater than 10 µM.

For the compound `COc1cc(Nc2nc(C)cc(-c3cnn4nc(OC)ccc34)n2)cc(C(F)(F)F)c1`, the % of control in experiment [12] was found to be 92%.

Take `CCC(=O)N1CCN(c2ccc(-n3c(=O)ccc4cnc5ccc(-c6cnc7ccccc7c6)cc5c43)cc2C(F)(F)F)CC1`: the % of control in [13] is 42%.

`CN(C(=O)c1cnn2cccnc12)c1cc2c(cc1N1CCOCC1)C(=O)N(C[C@@H](F)C(C)(C)O)C2` showed a dTM in experiment [14] of -0.1 K.

Turning to `C=CC(=O)Nc1cc(-n2c(=O)ccc3cnc4ccc(-c5ccc(NS(C)(=O)=O)cc5)cc4c32)ccc1C`, the % of control in [15] was determined as 4.6%.
